# Read-outs that look alike come from different tables or passages of the source.
# How the values were obtained:
# [1] = Stability of FRET reporter substrates to uncatalyzed hydrolysis; format: physicochemical
# Description: (§1) A convenient in vitro fluorometric esterase assay utilizing the BioTek Instruments Synergy™ HT Multi-Mode Microplate 96-well reader was developed that measured nanomolar concentrations of fluorescent reaction product.
# [2] = molecular target: T1, hDAGLα (Homo sapiens, UniProt Q9Y4D2); test: Evaluation of FRET reporter substrates for enzymatic hydrolysis; format: biochemical; design: V5; His; expressed in transfected cells; host or cells: HEK293T, transient; crude cell lysate or membrane preparation
# T1 sequence (Q9Y4D2 1-1042): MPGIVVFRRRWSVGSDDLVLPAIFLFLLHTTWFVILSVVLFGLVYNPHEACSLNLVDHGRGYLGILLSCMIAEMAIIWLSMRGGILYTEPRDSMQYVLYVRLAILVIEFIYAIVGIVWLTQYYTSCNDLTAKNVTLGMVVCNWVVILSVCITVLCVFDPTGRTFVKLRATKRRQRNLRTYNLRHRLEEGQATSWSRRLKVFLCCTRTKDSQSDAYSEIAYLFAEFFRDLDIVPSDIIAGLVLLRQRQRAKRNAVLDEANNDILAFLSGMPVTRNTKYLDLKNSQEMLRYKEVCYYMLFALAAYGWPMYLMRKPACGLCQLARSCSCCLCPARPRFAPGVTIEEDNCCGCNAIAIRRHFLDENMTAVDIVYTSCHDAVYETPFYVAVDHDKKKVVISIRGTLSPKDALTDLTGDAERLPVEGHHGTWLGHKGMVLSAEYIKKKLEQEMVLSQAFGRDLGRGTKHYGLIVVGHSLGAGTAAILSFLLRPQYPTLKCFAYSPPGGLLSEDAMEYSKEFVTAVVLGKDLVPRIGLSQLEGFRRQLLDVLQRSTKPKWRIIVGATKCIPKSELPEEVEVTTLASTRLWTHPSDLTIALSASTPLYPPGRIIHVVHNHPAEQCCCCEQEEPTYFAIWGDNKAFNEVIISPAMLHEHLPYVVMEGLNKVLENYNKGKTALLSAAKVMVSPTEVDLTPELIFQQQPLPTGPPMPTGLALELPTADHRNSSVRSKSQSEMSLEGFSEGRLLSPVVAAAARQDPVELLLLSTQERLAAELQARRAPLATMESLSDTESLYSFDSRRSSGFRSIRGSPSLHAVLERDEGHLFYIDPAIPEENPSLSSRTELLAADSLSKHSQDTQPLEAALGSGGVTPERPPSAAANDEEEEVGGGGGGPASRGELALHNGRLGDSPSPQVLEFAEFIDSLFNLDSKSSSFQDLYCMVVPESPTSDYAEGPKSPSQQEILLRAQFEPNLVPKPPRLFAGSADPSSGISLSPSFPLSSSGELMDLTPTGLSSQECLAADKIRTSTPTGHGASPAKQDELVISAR
# Description: Reporter compounds as substrates for hDAGLα activity with HEK293T cell lysates in the presence of 10% DMSO are shown. A) Pyrenyl analogs (17)-(19), (21), and (22) (EX 320 nm, EM 400 nm). B) NBD analog (20) (EX 485 nm, EM 535 nm).
# as §1
# [3] = molecular target: T2, MAGL (Homo sapiens, UniProt Q99685); details: cited from earlier work
# T2 sequence (Q99685 1-303): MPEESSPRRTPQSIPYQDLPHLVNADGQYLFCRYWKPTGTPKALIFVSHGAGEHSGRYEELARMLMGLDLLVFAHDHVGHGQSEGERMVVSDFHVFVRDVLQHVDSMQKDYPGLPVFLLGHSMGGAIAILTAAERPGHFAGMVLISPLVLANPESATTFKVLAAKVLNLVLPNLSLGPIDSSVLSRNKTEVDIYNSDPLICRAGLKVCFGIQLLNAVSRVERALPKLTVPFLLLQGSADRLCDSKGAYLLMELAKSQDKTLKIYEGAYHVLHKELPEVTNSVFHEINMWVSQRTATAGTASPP
# [4] = molecular target: T1, hDAGLα; test: biochemical
# [5] = molecular target: T3, mDAGLα (Mus musculus, UniProt Q6WQJ1); test: Radio-TLC assay with [14C]SAG substrate, mDAGLα; details: read-out: mDAGLα inhibition at 10000 nM (%)
# T3 sequence (Q6WQJ1 1-1044): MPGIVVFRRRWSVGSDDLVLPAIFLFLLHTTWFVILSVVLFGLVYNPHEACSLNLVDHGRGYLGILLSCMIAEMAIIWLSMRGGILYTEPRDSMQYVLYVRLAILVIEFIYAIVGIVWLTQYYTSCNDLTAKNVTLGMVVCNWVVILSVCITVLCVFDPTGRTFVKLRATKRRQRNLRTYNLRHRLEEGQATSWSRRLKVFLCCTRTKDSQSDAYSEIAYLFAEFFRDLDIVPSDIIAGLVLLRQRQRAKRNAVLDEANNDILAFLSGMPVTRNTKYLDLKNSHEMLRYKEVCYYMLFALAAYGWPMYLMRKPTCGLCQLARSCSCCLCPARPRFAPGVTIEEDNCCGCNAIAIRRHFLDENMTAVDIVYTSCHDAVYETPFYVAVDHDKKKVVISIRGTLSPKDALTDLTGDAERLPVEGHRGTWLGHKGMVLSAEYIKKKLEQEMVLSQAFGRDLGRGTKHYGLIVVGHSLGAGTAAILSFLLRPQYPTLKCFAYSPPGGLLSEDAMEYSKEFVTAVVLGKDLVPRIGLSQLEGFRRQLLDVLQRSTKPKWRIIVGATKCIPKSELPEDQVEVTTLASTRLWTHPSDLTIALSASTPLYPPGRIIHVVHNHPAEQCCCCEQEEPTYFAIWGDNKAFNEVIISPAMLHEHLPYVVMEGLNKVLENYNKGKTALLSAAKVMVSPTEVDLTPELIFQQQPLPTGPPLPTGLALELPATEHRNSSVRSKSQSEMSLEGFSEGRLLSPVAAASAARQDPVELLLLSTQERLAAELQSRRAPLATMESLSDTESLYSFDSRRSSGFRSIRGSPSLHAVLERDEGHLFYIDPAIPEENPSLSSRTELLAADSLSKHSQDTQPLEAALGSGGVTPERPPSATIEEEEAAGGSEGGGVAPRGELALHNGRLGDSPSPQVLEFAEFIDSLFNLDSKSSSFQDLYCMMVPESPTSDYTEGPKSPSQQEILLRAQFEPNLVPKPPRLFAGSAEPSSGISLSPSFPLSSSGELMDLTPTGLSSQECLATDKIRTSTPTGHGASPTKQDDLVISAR
# [6] = test system: cannabinoid receptors; details: cited from earlier work
# [7] = molecular target: T2, MAGL; test: hMAGL coumarin substrate fluorescence assay; format: biochemical; design: The N-terminal his-tagged full length human monoacylglycerol lipase used; His (N); made in house; host or cells: E. coli; details: read-out: hMAGL inhibition at 10 μM (%)
# [8] = test system: Lipoprotein Lipase (Bacterial); format: biochemical, Pseudomonas sp.
# [9] = molecular target: T4, Pancreatic Lipase (Porcine) (Sus scrofa, UniProt P00591); format: biochemical; details: read-out: Pancreatic Lipase (Porcine) inhibition at 10 μM (%)
# T4 construct: purchased Sigma L3126
# T4 sequence (P00591 1-450): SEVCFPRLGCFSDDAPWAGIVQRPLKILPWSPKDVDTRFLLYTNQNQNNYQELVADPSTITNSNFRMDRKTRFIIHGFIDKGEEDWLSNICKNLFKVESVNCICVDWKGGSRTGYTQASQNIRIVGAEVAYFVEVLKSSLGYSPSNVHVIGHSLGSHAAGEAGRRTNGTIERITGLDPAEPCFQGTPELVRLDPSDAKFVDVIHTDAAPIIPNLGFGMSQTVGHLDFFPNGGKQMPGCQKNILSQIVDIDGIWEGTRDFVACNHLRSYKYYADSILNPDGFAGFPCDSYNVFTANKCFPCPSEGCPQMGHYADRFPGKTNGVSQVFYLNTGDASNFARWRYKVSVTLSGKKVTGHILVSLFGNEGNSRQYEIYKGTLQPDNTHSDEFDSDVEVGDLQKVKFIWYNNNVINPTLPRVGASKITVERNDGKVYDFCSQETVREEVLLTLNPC
SMILES,stability to uncatalyzed hydrolysis at neutral pH [1],quality as substrate for enzymatic hydrolysis [2],inhibition of MAGL activity reported in the literature [3],"inhibition at 10 µM ([4]; read-out: hDAGLα inhibition at 10 μM detergent free (%), FRET)","inhibition at 10 µM ([4]; read-out: hDAGLα inhibition at 10 μM detergent free (%), FRET, marker °)",inhibition at 10 µM [5],"binding to the cannabinoid receptors, previous reports [6]",inhibition at 10 µM [7],Lipoprotein Lipase (Bacterial) inhibition at 10 μM (%) [8],inhibition at 10 µM [9]
"COC[C@@H](COC(=O)CCCCCNc1ccc([N+](=O)[O-])cc1[N+](=O)[O-])OC(=O)CCCc1ccc2ccc3cccc4ccc1c2c34 [Compound 17, 1-((2,4-Dinitrophenyl)amino)hexanoyl-2-pyrenebutanoyl-3-methyl-sn-glycerol]",stable,best enzyme substrates,–,–,–,–,–,–,–,–
"COC[C@@H](COC(=O)CCCc1ccc2ccc3cccc4ccc1c2c34)OC(=O)CCCCCNc1ccc([N+](=O)[O-])cc1[N+](=O)[O-] [Compound 18, 1-Pyrenebutanoyl-2-((2,4-dinitrophenyl)amino)hexanoyl-3-methyl-sn-glycerol]",stable,best enzyme substrates,–,–,–,–,–,–,–,–
NC(=O)c1cccc(-c2cccc(OC(=O)NC3CCCCC3)c2)c1 [URB597],–,–,poor inhibitors,22%,7%,< 0%,did not bind,18%,21%,68%
